Measurements taken from ChEMBL document CHEMBL1201862, “PubChem BioAssay data set” (2004).
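Values below derive from 48-hour exposures of cells grown in 96-well plates, with endpoints linearly interpolated between the two concentrations bracketing the appropriate inhibition level. GI50 is the concentration that inhibits growth by half.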 Active and inactive are the calls of the source. Cut-off read from the data, not from the text of the source: active = GI50 up to about 1.1 µM and inactive = higher.

Columns and labels:
Test in all cases: NCI tumour cell line growth inhibition, 48 h
SW-620 = tested on: SW-620
UO-31 = tested on: UO-31
CAKI-1 = tested on: CAKI-1
NCI-H23 = tested on: NCI-H23
K562 = tested on: K562
SK-MEL-5 = tested on: SK-MEL-5
OVCAR-8 = tested on: OVCAR-8
EKVX = tested on: EKVX
SNB-75 = tested on: SNB-75
HCT-15 = tested on: HCT-15
M14 = tested on: M14
TK-10 = tested on: TK-10
HCC 2998 = tested on: HCC 2998
CCRF-CEM = tested on: CCRF-CEM
IGROV-1 = tested on: IGROV-1
OVCAR-4 = tested on: OVCAR-4
U-251 = tested on: U-251

Compound | GI50 (SW-620) | GI50 (UO-31) | GI50 (CAKI-1) | GI50 (NCI-H23) | GI50 (K562) | GI50 (SK-MEL-5) | GI50 (OVCAR-8) | GI50 (EKVX) | GI50 (SNB-75) | GI50 (HCT-15) | GI50 (M14) | GI50 (TK-10) | GI50 (HCC 2998) | GI50 (CCRF-CEM) | GI50 (IGROV-1) | GI50 (OVCAR-4) | GI50 (U-251)
O=Cc1c[nH]c2c(=O)[nH]cnc12 | > 100 µM (inactive) | > 100 µM (inactive) | > 100 µM (inactive) | > 100 µM (inactive) | > 100 µM (inactive) | > 100 µM (inactive) | > 100 µM (inactive) | > 100 µM (inactive) | > 100 µM (inactive) | > 100 µM | > 100 µM (inactive) | > 100 µM (inactive) | > 100 µM (inactive) | > 100 µM (inactive) | > 100 µM (inactive) |  | 
Cc1ccc2nc3c(C(=O)NCCN(C)C)cccc3nc2c1 | 1.92 µM (inactive) |  |  | 4.26 µM (inactive) | 2.47 µM (inactive) | 4.6 µM (inactive) | 3.48 µM (inactive) | 5.65 µM (inactive) | 5.48 µM (inactive) | 2.9 µM | 5.12 µM (inactive) | 3.73 µM (inactive) | 6.05 µM (inactive) |  | 7.03 µM (inactive) | 4.69 µM (inactive) | 5.55 µM (inactive)
CC1(C)OC(C[C@]2(C#N)C[C@H](CCl)OC(C)(C)O2)C[C@@H](C[C@]2(C#N)C[C@H](CCl)OC(C)(C)O2)O1 (stereo partly drawn) | > 100 µM (inactive) |  | > 100 µM (inactive) | > 100 µM (inactive) | > 100 µM (inactive) | 51.6 µM (inactive) | > 100 µM (inactive) | > 100 µM (inactive) | > 100 µM (inactive) | > 100 µM | > 100 µM (inactive) | > 100 µM (inactive) | > 100 µM (inactive) | > 100 µM (inactive) | > 100 µM (inactive) | > 100 µM (inactive) | > 100 µM (inactive)
CC#CC1/C(=C\C(=O)OC)CCCC1O (stereo not drawn) | > 100 µM (inactive) | > 100 µM (inactive) | > 100 µM (inactive) | > 100 µM (inactive) | > 100 µM (inactive) | > 100 µM (inactive) | > 100 µM (inactive) | > 100 µM (inactive) | > 100 µM (inactive) | > 100 µM | > 100 µM (inactive) | > 100 µM (inactive) | > 100 µM (inactive) | > 100 µM (inactive) |  | > 100 µM (inactive) | > 100 µM (inactive)
c1ccc([S+](c2ccccc2)c2ccc(Sc3ccc([S+](c4ccccc4)c4ccccc4)cc3)cc2)cc1 | 37.9 µM (inactive) | 60 µM (inactive) | 75.5 µM (inactive) | 3.06 µM (inactive) | 1.17 µM (inactive) | 5.81 µM (inactive) | 20.3 µM (inactive) | 73.6 µM (inactive) | 19.2 µM (inactive) | > 100 µM | 45.5 µM (inactive) | 36.2 µM (inactive) | 20.2 µM (inactive) | 19.4 µM (inactive) | 43.2 µM (inactive) | 20.6 µM (inactive) | 15.7 µM (inactive)
CSc1ccc2c(cc1=O)[C@@H](NC(=O)c1cc(O)c(O)c(O)c1)CCc1cc(O)c(O)c(O)c1-2 | 17.1 µM (inactive) | 25.9 µM (inactive) |  | 20 µM (inactive) | 3.8 µM (inactive) | 19.8 µM (inactive) | 24 µM (inactive) | 23.2 µM (inactive) | 23.4 µM (inactive) | 20.2 µM | 19.6 µM (inactive) | 41.6 µM (inactive) | > 100 µM (inactive) | 3.33 µM (inactive) |  | 8.93 µM (inactive) | 18.6 µM (inactive)
